Key:
[1] = tested on: JJN-3 human plasma cell leukemia cells; experiment: Proliferation assay, JJN-3; type: cell-based; details: JJN3 cells
Method: (§1) Proliferation assays were performed with human plasma cell leukemia (JJN-3, L-363), human multiple myeloma (LP-1, MOLP-8, RPMI-8226 and OPM-2) and mouse MM 5TGM1 cells. The corresponding in vivo effects were studied in a syngeneic 5TGM1 mouse MM model. Female C57BL/KaLwRij mice (6-9 weeks old, n=15/group) were inoculated with 5TGM1 cells via tail vein and 26 days later, radium-223 (300 kBq/kg, single iv injection) and/or bortezomib (1 mg/kg ip, twice a week) or vehicle control were administered. The development of the osteolytic lesions was detected by radiography. The hind limbs were used for histological analyses and total activity measurement performed by a gamma-counter. Osteoclast number at tumor-bone interface was measured using TRAP staining.

[2] = tested on: syngeneic 5TGM1 mouse MM model; experiment: Syngeneic 5TGM1 mouse MM model; type: in vivo; details: p<0.05 bortezomib; for osteolytic lesion area: radiography, radium-223 300 kBq/kg single iv and/or bortezomib 1 mg/kg ip twice a week, p=0.01 radium-223, p<0.001 combination
Method: as §1

[3] = tested on: OPM-2 human multiple myeloma cells; experiment: Proliferation assay, OPM-2; type: cell-based; details: OPM-2 cells
Method: as §1

[4] = tested on: JJN-3, L-363, LP-1, MOLP-8, RPMI-8226, OPM-2 and 5TGM1 cells; experiment: Proliferation assays, all cancer cell lines tested; type: cell-based, human and mouse
Method: as §1

[5] = tested on: MOLP-8 human multiple myeloma cells; experiment: Proliferation assay, MOLP-8; type: cell-based; details: MOLP-8 cells
Method: as §1, with “staining. Bortezomib inhibited proliferation of all cancer cell lines tested at 25 nM (JJN3 and OPM-2 at 2.5 nM) and radium-223 at 800 Bq/ml (L-363 and MOLP-8 at 200 Bq/ml). […] In 5TGM1 MM model, both bortezomib and radium-223 decreased osteolytic lesion area as monotherapy (p<0.05 and p=0.01, respectively). […] All treatments were well tolerated.” for “staining.”

[6] = tested on: patients with bone metastases; details: cited from earlier work
[7] = single dose 250 kBq per kg body weight; cited from earlier work
[8] = tested on: L-363 human plasma cell leukemia cells; experiment: Proliferation assay, L-363; type: cell-based; details: L-363 cells
Method: as §1, with “staining. Bortezomib inhibited proliferation of all cancer cell lines tested at 25 nM (JJN3 and OPM-2 at 2.5 nM) and radium-223 at 800 Bq/ml (L-363 and MOLP-8 at 200 Bq/ml). […] In 5TGM1 MM model, both bortezomib and radium-223 decreased osteolytic lesion area as monotherapy (p<0.05 and p=0.01, respectively). […] All treatments were well tolerated.” for “staining.”

[9] = tested on: patients with CRPC and bone metastases; details: cited from earlier work
[10] = phase 2 studies, CRPC and bone metastases

SMILES: CC(C)C[C@H](NC(=O)[C@H](Cc1ccccc1)NC(=O)c1cnccn1)B(O)O [bortezomib]
- concentration at which proliferation was inhibited [1]: 2.5 nM
- number of osteoclasts at tumor-bone interface ([2]; TRAP staining, p<0.01 combination): decreased
- osteolytic lesion area [2]: decreased
- concentration at which proliferation was inhibited [3]: 2.5 nM
- concentration at which proliferation was inhibited [4]: 25 nM

SMILES: [Cl][223Ra][Cl] [radium-223, radium-223 dichloride]
- activity concentration at which proliferation was inhibited [5]: 200 Bq/ml
- osteolytic lesion area [2]: decreased
- safety profile ([6]; phase 1 and 2 studies): favorable safety profile with minimal myelotoxicity
- disease-related biomarkers (bone ALP, PSA) [6, 10]: improves
- pain [6, 10]: reduces pain
- activity concentration at which proliferation was inhibited [4]: 800 Bq/ml
- cases of grade 3 neutropenia [7]: 1/5
- observed adverse reactions [7]: diarrhea and reversible myelosuppression
- activity concentration at which proliferation was inhibited [8]: 200 Bq/ml
- median survival longer than placebo ([9]; CRPC with bone metastases): 2.8 months
- median overall survival ([9]; Phase III clinical trials): Significant increase
- reduction in risk of death compared with placebo ([9]; overall survival, CRPC with bone metastases): 30.5%
- time to first skeletal-related event ([9]; vs placebo): significantly prolonged
